Experimental data taken from US20220087247A1, “MOUSE REPELLENTS, DEVICES, AND METHODS OF USING SUCH” (priority 2020, published 2022).

What was measured:
[1] = system: mosquitoes, beetles, and termites; settings: known from prior knowledge; cited from earlier work
[2] = system: female house mice, Mus musculus (strain: CD-1); assay: Two-choice T-tube olfactometer bioassay: deterrence from approaching and feeding on a food bait; type: in vivo; settings: Experiments 1 to 12; single test stimulus 100 μl or 100 mg on cotton ball next to food bait vs unscented chamber
Source text: Female house mice, Mus musculus (strain: CD-1®), were obtained from Charles River Laboratories Ltd (Saint-Constant, QC J5A 2E7, Canada) and cared for by Animal Care Services of Simon Fraser University (“SFU”). On arrival, mice were assigned to four groups of five female mice each. Each group was accommodated in cages (50 cm×40 cm×20 cm) lined with commercial corn cob bedding (Anderson's Bed o'cobs, The Andersons Inc. Maumee, Ohio 43537, USA), provided with Nalgene toys, running wheels (Jamieson's Pet Food Distributors, Ltd, Delta, BC V4G 1C9, Canada), and provisioned with commercial rodent food (LabDiet® Certified Rodent Diet, LabDiet®, St Louis, Mo. 63144, USA) as well as water ad libitum. Cages were maintained at a temperature of 21° C. and a relative humidity of 50%. A reverse photoperiod (12 hours light; 12 hours dark) was maintained to facilitate behavioral bioassays during normal working hours. […]
FIG. 3 depicts data obtained by additional testing of those plant essential oils found most promising in pre-screening experiments (Experiments 2, 5, 8, 9, and 11), running a total of 8 replicates for each of experiments 2, 5, 8, 9 and 11. First-choice, first-fed, and time-spent data were analyzed using g-tests and Student's t-tests, respectively, for these experiments. […]

| Structure (SMILES) | repellency to insects [1] | first fed (scented chamber fed in first by mice) [2] |
| --- | --- | --- |
| C=CCc1ccc(O)c(OC)c1 [Eugenol] | repellent |  |
| CC1CCC(C(C)C)C(O)C1 (centres unmarked) [menthol, Menthol] |  | never fed in first |
